The source of these data is PMC12389234, “Bioactive Potential of Nepenthes miranda Flower Extracts: Antidiabetic, Anti-Skin Aging, Cytotoxic, and Dihydroorotase-Inhibitory Activities” (Plants, 2025).

This assay deals with T1, porcine pancreatic elastase (Sus scrofa, UniProt P00772).
T1 construct: gene CELA1; native mature enzyme from porcine pancreas (commercial, Sigma-Aldrich)
Put plainly: spectrophotometric, p-nitroanilide release, […] nm. Type of assay: biochemical.

T1 sequence (P00772 27-266): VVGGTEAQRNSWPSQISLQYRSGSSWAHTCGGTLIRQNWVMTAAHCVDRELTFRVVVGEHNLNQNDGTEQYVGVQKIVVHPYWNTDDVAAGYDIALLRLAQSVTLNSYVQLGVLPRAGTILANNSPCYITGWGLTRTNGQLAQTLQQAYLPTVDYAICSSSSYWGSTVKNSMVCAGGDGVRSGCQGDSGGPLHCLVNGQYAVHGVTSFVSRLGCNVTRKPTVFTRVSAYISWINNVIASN

One may read the IC50 as the concentration needed to halve the response being measured. Low values mean inhibition by little substance, high ones a need for much substance. For `O=C(O[C@@H]1Cc2c(O)cc(O)cc2O[C@@H]1c1cc(O)c(O)c(O)c1)c1cc(O)c(O)c(O)c1` [EGCG], the half-maximal inhibitory concentration (IC50) was 9.27 µM.
